Measured values taken from PMC11767344, “Entire Encapsulation of Thymopentin by Extended Biphen[3]arene Carboxylate for Improving Plasma Stability” (Molecules, 2025).
Ends that are not written are not given here.

Experiments:
[1] = Plasma stability of thymopentin by HPLC; assay type: in vitro ADME; conditions: thymopentin 1.0 mM, equal amount of rat plasma, 37 °C, HPLC-UV 210 nm
Experimental: To test the above hypothesis, we compared the plasma stability of free thymopentin, a host–guest mixture of thymopentin/ExBP3C, thymopentin/CP5A, and thymopentin/cucurbit[7]uril (CB[7]) using high-performance liquid chromatography (HPLC). According to a previously reported method, the above samples (all containing 1.00 mM of thymopentin) were dissolved in deionized water and then incubated with an equal amount of rat plasma at 37 °C. At predetermined intervals, 100 μL of solution in various groups were withdrawn and quenched with 100 μL of acetonitrile containing 0.1% trifluoroacetic acid (TFA). HPLC analysis was performed on an LC-10AT VP Plus liquid chromatography system with an SPD-10 A VP Plus UV–Vis detector operating at 210 nm and quantified using Shimadzu LC solution Lite. The column used was a C18 reverse-phase column, and the mobile phase was composed of solvent A (water containing 0.1% TFA) and solvent B (70% acetonitrile and 0.1% TFA); the injection volume and flow rate were respectively set as 20 μL and 1.00 mL∙min^−1. The appropriate calibration curve was first derived to calculate the concentration of thymopentin based on the above-mentioned procedure (Figure 5a). […]
Figure 5 (a) Calibration curve obtained by HPLC and used to calculate thymopentin concentration in plasma stability. […] (2.0 mM) as determined by HPLC.

thymopentin = target: T1, thymopentin (Homo sapiens, UniProt P42166); experiment: Isothermal titration calorimetry (ITC) of thymopentin into ExBP3C; assay type: binding; conditions: deionized water, 25 °C, ExBP3C 40 μM in cell, thymopentin 500 μM in syringe
T1 construct: purchased
Experimental: An isothermal microcalorimetric titration (ITC) experiment was further carried out in deionized water at 25 °C on a PEAQ-ITC to quantitatively assess the binding affinity and related thermodynamic parameters. A 300 μL solution of ExBP3C was placed in the sample cell at a concentration of 40 μM, and 70 μL of a solution of thymopentin (500 μM) was placed in the injection syringe. The titration was conducted by titration of 18 drops of thymopentin to the ExBP3C solution, and all solutions were degassed prior to titration. […] It should be noted that the binding stoichiometry between ExBP3C and thymopentin was determined to be 0.956 ± 0.011, which was very close to 1:1 and consistent with the above entire encapsulation mode (Figure 3). A larger interaction area of thymopentin/ExBP3C would facilitate the production of a stronger binding affinity.
Figure 3 ITC isotherm for the titration of thymopentin/ExBP3C in aqueous solution at room temperature (top: raw data; bottom: net reaction heat obtained from integration of calorimetric traces).

[2] = test system: mouse fibroblast cell line (L929); experiment: Cytotoxicity, Cell Counting Kit-8; assay type: cell-based; conditions: 24 h, 37 °C, 5% CO2, CCK-8, 450 nm; even at relatively high concentrations; mean ± SD, n = 5
Experimental: (§1) In practical biomedical applications, the safety profiles of supplementary materials are of great concern. Here we preliminarily investigated the cytotoxicity of ExBP3C on a mouse fibroblast cell line (L929) and its hemolytic activity toward rabbit red blood cells (rRBCs). ExBP3C was first dissolved in deionized water and diluted to the required concentrations. For cytotoxicity studies, ExBP3C samples were added to L929 cell-containing wells, which were incubated at 37 °C under 5% CO2 for 24 h, and then the Cell Counting Kit-8 reagent was added into each well to stain for 30 min. […] For the hemolysis assay, ExBP3C samples were added to an erythrocyte suspension at 37 °C for 24 h. After that, the suspension was centrifuged at 1000 rpm for 10 min, and 100 μL of supernatant was transferred to a 96-well plate for measurement by a plate reader. […] On the basis of experimental results and prior studies, we concluded that the administration of ExBP3C at the above examination range was relatively nontoxic on a cellular level.
(§2) Figure 6 (a) Relative viability of mouse fibroblast cell line (L929) after treatment with ExBP3C for 24 h at the indicated concentrations (mean ± SD, n = 5). (b) Hemolysis of ExBP3C toward rabbit red blood cells (rRBCs) after 24 h of incubation time, and the hemolytic rate of rRBCs incubated with 1% Triton X-100 was defined as 100% (mean ± SD, n = 3).

[3] = test system: rabbit red blood cells (rRBCs); experiment: Hemolysis assay; assay type: cell-based; conditions: 320 μM, 37 °C, 24 h; 1% Triton X-100 defined as 100%; mean ± SD, n = 3
Experimental: as §1, §2

Substance | Residual thymopentin after exposure to rat plasma, in words ([1]; 30 min) | Time until thymopentin became undetectable ([1]; alone or with macrocycle 2.0 mM) | binding stoichiometry, N (sites) (thymopentin) | Cytotoxicity against L929 cells, in words [2] | Relative hemolysis [3]
RKDVY [thymopentin] | undetectable | ≤ 30 min | – | – | –
extended biphen[3]arene carboxylate [ExBP3C] | – | – | 0.956 ± 0.011 | minimal cytotoxicity | 1.92%
